Experiments:
wild type SARS-CoV = type: cell-based; settings: single dose of 500 μg/ml at 1 hr pi
icSARS-CoV = type: cell-based, SARS-CoV; settings: single dose of 500 μg/ml at 1 hr pi

CCOC(=O)[C@H]1O[C@@H]1C(=O)N[C@@H](CC(C)C)C(=O)NCCC(C)C (relative stereo) [E64-d, {2S, 3S}-trans-epoxysuccinyl-L-leucylamido-3-methylbutane ethyl ester]
viral CPE and viral antigen expression (wild type SARS-CoV): almost complete elimination | reduction in virus yield (wild type SARS-CoV; 24 and 48 hrs postinfection): 3-4 log | viral CPE and viral antigen expression (icSARS-CoV): almost complete elimination | reduction in virus yield (icSARS-CoV; 24 and 48 hrs postinfection): 3-4 log

Source: patent US7618802B2 (priority 2003, dated 2009)
